According to ChEMBL document CHEMBL5465560, “Selectivity Literature for EUbOPEN Chemogenomic Library” (2024):
Values belong to the compound of their own block, whether it stands above or below them.

What was measured:
[1] = molecular target: Calcium/calmodulin-dependent protein kinase type II subunit gamma (Homo sapiens) (UniProt Q13555); conditions: at 10 µM
[2] = molecular target: T1, cAMP-dependent protein kinase catalytic subunit PRKX (Homo sapiens) (UniProt P51817); assay: Selectivity interaction (KinomeScan (DiscoverX)) EUB0000607a PRKX; conditions: at 10 µM
T1 sequence (whole entry): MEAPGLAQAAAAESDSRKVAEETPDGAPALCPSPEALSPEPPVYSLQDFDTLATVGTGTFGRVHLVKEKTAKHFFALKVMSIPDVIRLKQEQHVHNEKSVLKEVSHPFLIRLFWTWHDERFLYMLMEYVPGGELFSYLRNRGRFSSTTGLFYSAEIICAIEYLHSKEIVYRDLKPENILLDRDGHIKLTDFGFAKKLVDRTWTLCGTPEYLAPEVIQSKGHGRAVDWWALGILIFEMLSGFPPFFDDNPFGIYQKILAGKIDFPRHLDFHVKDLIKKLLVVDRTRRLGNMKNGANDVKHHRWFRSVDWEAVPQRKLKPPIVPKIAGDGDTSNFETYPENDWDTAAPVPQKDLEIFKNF

[3] = molecular target: T2, Tyrosine-protein kinase Tec (Homo sapiens) (UniProt P42680); conditions: at 10 µM
T2 sequence (whole entry): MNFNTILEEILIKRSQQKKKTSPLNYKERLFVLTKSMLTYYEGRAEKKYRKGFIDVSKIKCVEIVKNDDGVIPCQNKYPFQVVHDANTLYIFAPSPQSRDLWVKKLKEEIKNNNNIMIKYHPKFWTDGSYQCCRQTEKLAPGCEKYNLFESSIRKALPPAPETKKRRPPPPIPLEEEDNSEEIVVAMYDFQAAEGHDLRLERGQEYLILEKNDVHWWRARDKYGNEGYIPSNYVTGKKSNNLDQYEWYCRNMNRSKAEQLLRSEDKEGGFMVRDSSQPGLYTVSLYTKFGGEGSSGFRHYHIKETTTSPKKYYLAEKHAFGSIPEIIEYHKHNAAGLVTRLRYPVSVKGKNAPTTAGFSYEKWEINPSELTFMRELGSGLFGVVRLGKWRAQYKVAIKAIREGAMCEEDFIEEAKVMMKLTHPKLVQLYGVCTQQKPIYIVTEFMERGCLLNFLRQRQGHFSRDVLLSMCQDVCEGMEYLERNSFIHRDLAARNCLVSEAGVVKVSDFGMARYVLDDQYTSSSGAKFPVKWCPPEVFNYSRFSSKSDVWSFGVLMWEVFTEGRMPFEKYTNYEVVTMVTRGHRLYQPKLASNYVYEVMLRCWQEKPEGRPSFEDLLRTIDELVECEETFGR

[4] = molecular target: Tyrosine-protein kinase FRK (Homo sapiens) (UniProt P42685); assay: Selectivity interaction (KinomeScan (DiscoverX)) EUB0001049a FRK; conditions: at 1 µM
Sequence of Tyrosine-protein kinase FRK (Homo sapiens) (P42685 whole entry): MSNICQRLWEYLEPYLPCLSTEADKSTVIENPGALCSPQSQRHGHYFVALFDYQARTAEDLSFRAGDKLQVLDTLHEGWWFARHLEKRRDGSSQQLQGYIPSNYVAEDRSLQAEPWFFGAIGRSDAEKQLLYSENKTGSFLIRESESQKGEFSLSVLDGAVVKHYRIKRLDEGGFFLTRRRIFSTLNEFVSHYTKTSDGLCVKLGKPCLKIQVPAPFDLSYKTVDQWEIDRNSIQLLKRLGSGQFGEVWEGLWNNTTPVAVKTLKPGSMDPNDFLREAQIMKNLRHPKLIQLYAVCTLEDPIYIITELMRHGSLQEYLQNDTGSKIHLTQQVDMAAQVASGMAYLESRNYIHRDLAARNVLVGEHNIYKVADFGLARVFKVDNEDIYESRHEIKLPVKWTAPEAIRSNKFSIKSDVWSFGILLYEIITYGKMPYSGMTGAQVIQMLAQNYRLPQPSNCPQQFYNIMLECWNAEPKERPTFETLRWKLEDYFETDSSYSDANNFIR

[5] = Selectivity interaction (Inhibition of ex vivo anti-IgM/IL-4 -induced proximal pAKT formation in rats) EUB0000877a PIK3CD
[6] = molecular target: T3, Serine/threonine-protein kinase DCLK2 (Homo sapiens) (UniProt Q8N568); assay: Selectivity interaction (KinomeScan (DiscoverX)) EUB0000666a DCLK2; conditions: at 10 µM
T3 sequence (whole entry): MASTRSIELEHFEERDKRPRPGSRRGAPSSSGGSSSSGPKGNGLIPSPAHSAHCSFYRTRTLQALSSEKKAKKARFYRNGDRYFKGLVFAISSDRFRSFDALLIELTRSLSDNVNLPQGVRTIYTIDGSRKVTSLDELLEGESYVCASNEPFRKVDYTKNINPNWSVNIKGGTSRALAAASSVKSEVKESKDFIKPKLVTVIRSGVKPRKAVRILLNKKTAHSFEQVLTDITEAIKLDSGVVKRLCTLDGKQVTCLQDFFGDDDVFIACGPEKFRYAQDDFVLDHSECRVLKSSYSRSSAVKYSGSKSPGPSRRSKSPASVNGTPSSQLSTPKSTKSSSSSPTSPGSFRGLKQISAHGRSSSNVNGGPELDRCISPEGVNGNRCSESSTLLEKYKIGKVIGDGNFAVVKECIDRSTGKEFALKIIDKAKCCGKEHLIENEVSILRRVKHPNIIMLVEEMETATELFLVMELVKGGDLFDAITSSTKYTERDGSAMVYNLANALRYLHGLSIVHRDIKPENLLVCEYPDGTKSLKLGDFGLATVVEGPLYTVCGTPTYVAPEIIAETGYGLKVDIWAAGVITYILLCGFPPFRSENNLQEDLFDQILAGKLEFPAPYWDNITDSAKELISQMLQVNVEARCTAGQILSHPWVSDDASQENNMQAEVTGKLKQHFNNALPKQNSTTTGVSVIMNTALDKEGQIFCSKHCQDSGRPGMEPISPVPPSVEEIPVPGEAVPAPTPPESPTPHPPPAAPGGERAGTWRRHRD

[7] = molecular target: T4, Mitogen-activated protein kinase kinase kinase kinase 2 (Homo sapiens) (UniProt Q12851); assay: Selectivity interaction (KinomeScan (DiscoverX)) EUB0000666a MAP4K2; conditions: at 10 µM
T4 sequence (whole entry): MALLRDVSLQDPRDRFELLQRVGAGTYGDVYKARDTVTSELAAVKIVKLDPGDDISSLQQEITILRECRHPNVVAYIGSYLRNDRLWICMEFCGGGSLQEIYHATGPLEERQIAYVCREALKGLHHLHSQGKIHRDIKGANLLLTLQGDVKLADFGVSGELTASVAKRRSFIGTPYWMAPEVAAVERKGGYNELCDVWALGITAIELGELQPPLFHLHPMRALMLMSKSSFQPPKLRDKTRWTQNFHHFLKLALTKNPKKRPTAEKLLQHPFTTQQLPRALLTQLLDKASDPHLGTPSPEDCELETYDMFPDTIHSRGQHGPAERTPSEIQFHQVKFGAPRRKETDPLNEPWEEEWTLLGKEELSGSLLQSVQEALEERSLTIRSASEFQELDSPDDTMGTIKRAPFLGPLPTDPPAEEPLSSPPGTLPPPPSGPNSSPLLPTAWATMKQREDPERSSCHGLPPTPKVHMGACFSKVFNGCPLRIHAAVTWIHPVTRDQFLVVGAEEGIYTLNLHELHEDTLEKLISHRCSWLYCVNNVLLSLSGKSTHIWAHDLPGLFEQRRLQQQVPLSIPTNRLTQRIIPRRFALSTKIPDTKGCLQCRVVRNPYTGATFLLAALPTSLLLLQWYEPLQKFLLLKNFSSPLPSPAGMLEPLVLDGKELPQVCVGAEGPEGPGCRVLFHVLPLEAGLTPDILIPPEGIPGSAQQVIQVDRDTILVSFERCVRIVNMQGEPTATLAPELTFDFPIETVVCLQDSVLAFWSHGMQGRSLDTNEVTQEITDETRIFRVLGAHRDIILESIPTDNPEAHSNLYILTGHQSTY

[8] = molecular target: Casein kinase I isoform delta (Homo sapiens, UniProt P48730); assay: Selectivity interaction (Kinase panel (Z-LYTE Assay)) EUB0001632a CSNK1D; conditions: at 10 µM
Sequence of Casein kinase I isoform delta (P48730 whole entry, looked up, canonical isoform): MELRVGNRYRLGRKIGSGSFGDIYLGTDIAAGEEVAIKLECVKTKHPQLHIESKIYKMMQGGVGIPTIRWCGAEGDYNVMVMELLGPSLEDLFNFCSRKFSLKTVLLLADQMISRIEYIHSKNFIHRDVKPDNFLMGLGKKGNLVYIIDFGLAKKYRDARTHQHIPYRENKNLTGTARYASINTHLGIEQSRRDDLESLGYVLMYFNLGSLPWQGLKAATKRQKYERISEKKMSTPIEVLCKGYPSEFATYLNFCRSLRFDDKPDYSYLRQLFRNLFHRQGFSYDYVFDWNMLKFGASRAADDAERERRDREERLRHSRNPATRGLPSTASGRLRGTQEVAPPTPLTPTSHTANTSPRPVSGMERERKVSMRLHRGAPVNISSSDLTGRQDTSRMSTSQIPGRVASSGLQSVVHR

[9] = molecular target: cAMP-dependent protein kinase catalytic subunit alpha (Homo sapiens, UniProt P17612); assay: Selectivity interaction (KinomeScan (DiscoverX)) EUB0000695a PRKACA; conditions: at 100 nM

Sequence of Calcium/calmodulin-dependent protein kinase type II subunit gamma (Homo sapiens) (Q13555 whole entry): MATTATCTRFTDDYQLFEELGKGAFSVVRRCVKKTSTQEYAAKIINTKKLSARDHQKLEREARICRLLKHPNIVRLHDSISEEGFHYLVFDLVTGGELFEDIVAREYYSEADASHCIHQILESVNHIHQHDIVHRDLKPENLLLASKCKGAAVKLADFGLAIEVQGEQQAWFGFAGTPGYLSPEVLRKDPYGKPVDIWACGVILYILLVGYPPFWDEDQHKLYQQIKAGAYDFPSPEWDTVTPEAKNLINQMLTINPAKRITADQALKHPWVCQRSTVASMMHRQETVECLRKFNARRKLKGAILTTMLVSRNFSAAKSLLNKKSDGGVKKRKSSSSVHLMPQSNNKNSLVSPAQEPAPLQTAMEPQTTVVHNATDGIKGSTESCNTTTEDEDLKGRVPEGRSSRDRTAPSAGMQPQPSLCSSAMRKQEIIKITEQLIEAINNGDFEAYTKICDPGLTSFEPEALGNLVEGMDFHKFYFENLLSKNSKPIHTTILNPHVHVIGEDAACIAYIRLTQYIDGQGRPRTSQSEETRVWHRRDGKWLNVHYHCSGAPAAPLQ

% of control [1]: 100%
Compound: CCN(CC)CCCCNc1ncc2cc(-c3cc(OC)cc(OC)c3)c(NC(=O)NC(C)(C)C)nc2n1

Compound: CNC(=O)Nc1ccc(-c2nc(N3CC4CCC(C3)O4)c3cnn(C4CCC5(CC4)OCCO5)c3n2)cc1
% of control [2]: 100%

Compound: Cc1cc([C@@H](C)Nc2ccccc2C(=O)O)c2nc(N3CCOCC3)cc(=O)n2c1 [AZD-6482]
% of control [3]: 91%

Compound: COc1cc(Nc2nc(C)cc(-c3cnn4nc(OC)ccc34)n2)cc(C(F)(F)F)c1
% of control [4]: 100%

EC50 [5]: 83 nM
Compound: CCC(=O)N1CC[C@H](Nc2ncnc3c2CN(c2cnc(OC)c(C(F)(F)F)c2)CC3)C1 [LENIOLISIB]

Compound: O=C(NOC[C@H](O)CO)c1ccc(F)c(F)c1Nc1ccc(I)cc1F
% of control [6]: 100%
% of control [7]: 100%

% of control [8]: 23.3%
Compound: Cn1cc(-n2cnc3c(NCc4nc5cc(Cl)c(Cl)cc5[nH]4)nc(N4CCOCC4)nc32)cn1

Compound: Cc1cc(F)c(C(=O)Nc2cccc(-c3nncn3C(C)C)n2)cc1-n1cnc(C2CC2)c1
% of control [9]: 99%
